Assay results reported in patent US20030138946A1.

Columns and labels:
[1] = system: CD8^+ 2C lymph node cells; experiment: IL-2 production by CD8+ 2C lymph node cells (CTLL indicator line 3HTdR); format: cell-based, mouse; settings: peptide 10 μM
Procedure: (§1) Using a standard tissue culture system (Cai, Z. and Sprent, J. (1994) J. Exp. Med. 179: 2005-2015), doses of 5×10^4 purified CD8^+ 2C lymph node (LN) cells were cultured at 37° C. with doses of 3×10^5 transfected fly cells ±peptides (10 μM final concentration). Peptides were synthesized by R. W. Johnson Pharmaceutical Research Institute (Sykulev, et al. (1994) Immunity 1: 15-22. Proliferative responses were measured by adding ^3HTdR (1 μCi/well) 8 hours prior to harvest. IL-2 production was measured by removing supernatants from the cultures at 48 hours and adding 50 μl supernatant to an IL-2 responsive indicator cell line (CTLL); proliferation of the indicator line was measured by addition of ^3HTdR. The data shown in Table 2 are the means of triplicate cultures. The transfected Drosophila S2 cells die rapidly at 37° C. and fail to incorporate ^3HTdR at this temperature.

[2] = system: CD8^+ 2C lymph node cells; experiment: Primary proliferative response of CD8+ 2C lymph node cells to peptides presented by transfected fly cells (3HTdR); format: cell-based, mouse; settings: peptide 10 μM
Procedure: as §1

[3] = system: soluble 2C TCR molecules; settings: peptide complexed to L^d; association constant; cited from earlier work
[4] = system: CD8^+ 2C cells; experiment: CD69 and CD25 expression on CD8+ 2C cells stimulated with transfected Drosophila cells plus peptide; format: cell-based, mouse; settings: Drosophila cells expressing L^d alone; peptide 10 μM, 12 hours
Procedure: TCR stimulation elicited a complex pattern of intracellular events which lead to early up-regulation of CD69 and CD25 (IL-2 receptor or IL-2R) on the cell surface. These changes are apparent within a few hours of stimulation and are followed by cytokine synthesis and cell proliferation. Drosophila cells were transfected with genes for L^d, L^d and B7.1 (L^d.B7), L^d and ICAM-1 (L^d.ICAM) or L^d, B7.1 and ICAM-1 (L^d.B7.1CAM). […] Purified CD8^+ 2C cells were incubated with various Drosophila cells plus a peptide (either p2Ca or QL9, 10 μM) in bulk (2 ml) culture for 12 hours and then stained for CD69 or CD25. Either p2Ca or QL9 presented by Drosophila cells transfected with L^d.B7, L^d.ICAM or L^d.B7.1CAM were effective in stimulating the up-regulation of CD69 and CD25.

[5] = system: RMA.S cells (target cells) expressing L^d; format: cell-based, mouse
[6] = system: 2C+ T-cells; format: cell-based, mouse
[7] = system: 2C+ T-cells; experiment: Enrichment of 2C+ T-cells from a 1/99 mixture with C57BL/6 CD8+ cells (1B2 staining, flow cytofluorometry); format: cell-based, mouse
Procedure: 2C+ T-cells were mixed with total CD8^+ cells from C57BL/6 mice at a 1/99 ratio and cells were cultured with immobilized L^d and anti-CD28 antibody in the presence of peptide QL9. IL-2 was added at day 2 of culture, and subsequently every other day. Cell activation and proliferation was noted, as evidenced by the formation of clumps, presence of enlarged cells that progressively spread in the well. At day 12 of culture, cells were harvested and percentage of cells expressing the 2C T-cell receptor was assessed by staining with the anticlonotypic antibody 1B2 and analysis by flow cytofluorometry: 43% of the cells cultured initially in the presence of peptide QL9 were 2C+, (FIG. 22) whereas 49% of the cells expressed 2C after stimulation with peptide p2Ca (FIG. 23), and 22% with peptide SL9 (FIG. 24). […] Enrichment was observed even with SL9, a peptide that makes a low affinity complex with the 2C T-cell receptor. This method thus can specifically activate and enrich a small subpopulation of antigen specific T-cells out of a heterogenous mixture of T-cells.

[8] = system: normal B6 CD8^+ cells; experiment: Proliferation of normal (nontransgenic) B6 CD8+ cells to peptide on L^d.B7.ICAM Drosophila APC; format: cell-based, mouse; settings: 10 μM peptide, L^d.B7.1CAM APC, 1×10^6 responder cells, no added cytokines
Procedure: The capacity of L^d.B7.1CAM Drosophila cells to induce a strong primary response of 2C TCR transgenic CD8^+ cells raised the question whether Drosophila cells could act as antigen-presenting cells for normal (nontransgenic) CD8^+ cells. Since the 2C mice were on a B6 (H-2b) background, the response of normal B6 CD8^+ cells was tested. Graded doses of CD8^+ cells from normal B6 mice were cultured with 10 μM QL9 peptide presented by L^d.B7.1CAM Drosophila antigen-presenting cells, i.e. a situation where a diverse repertoire of T-cells was exposed to only a single alloantigen (L^d+QL9) but at high concentration. As shown in FIG. 19 (left), presentation of QL9 by L^d.B7.1CAM antigen-presenting cells was indeed immunogenic for normal B6 CD8^+ cells and led to appreciable proliferative responses on Day 3 (80,000 cpm) with large doses of responder cells (1×10^6) in the absence of added cytokines; responses to an unrelated peptide, MCMV, were much lower (though significant) and no response occurred in the absence of peptide. As expected, the response of normal B6 CD8+cells to QL9 plus L^d.B7.1CAM antigen-presenting cells was substantially lower than with normal B10.D2 spleen cells as antigen-presenting cells (where the allostimulus was provided by a multiplicity of self peptides bound to L^d, K^d and D^d, but at low concentration) (FIG. 19, right. Note the difference in the Y axis scales).

Gln-Leu-Ser-Pro-Phe-Pro-Phe-Asp-Leu [QL9]
IL-2 Production (Day 2) ^3HTdR incorporation, fly cells expressing L^d ([1]; APC L^d): 0.1 cpm × 10^3
IL-2 Production (Day 2) ^3HTdR incorporation, fly cells expressing L^d + B7.1 ([1]; APC L^d + B7.1): 0.4 cpm × 10^3
IL-2 Production (Day 2) ^3HTdR incorporation, fly cells expressing L^d + B7.1 + ICAM-1 ([1]; APC L^d + B7.1 + ICAM-1): 158.6 cpm × 10^3
IL-2 Production (Day 2) ^3HTdR incorporation, fly cells expressing L^d + ICAM-1 ([1]; APC L^d + ICAM-1): 0.2 cpm × 10^3
IL-2 Production (Day 2) ^3HTdR incorporation, L^d + B7.1 combined with L^d + ICAM-1 ([1]; mixture of two APC lines): 0.5 cpm × 10^3
Proliferation (Day 3) ^3HTdR incorporation, fly cells expressing L^d ([2]; APC L^d): 0.2 cpm × 10^3
Proliferation (Day 3) ^3HTdR incorporation, fly cells expressing L^d + B7.1 ([2]; APC L^d + B7.1): 60.9 cpm × 10^3
Proliferation (Day 3) ^3HTdR incorporation, fly cells expressing L^d + B7.1 + ICAM-1 ([2]; APC L^d + B7.1 + ICAM-1): 263.7 cpm × 10^3
Proliferation (Day 3) ^3HTdR incorporation, fly cells expressing L^d + ICAM-1 ([2]; APC L^d + ICAM-1): 73.9 cpm × 10^3
Proliferation (Day 3) ^3HTdR incorporation, L^d + B7.1 combined with L^d + ICAM-1 ([2]; mixture of two APC lines): 132.9 cpm × 10^3
affinity for 2C TCR molecules [3]: 2e+07 M⁻¹
induction of CD69 and CD25 expression [4]: low, but significant
lysis of target cells in the presence of peptide [5]: observed
thymidine incorporation [6]: above 100,000 cpm per well
enrichment in specific T-cells after 12 days ([7]; start 1/99): 43 times
cells expressing the 2C T-cell receptor (2C+) at day 12 ([7]; start 1/99 2C+/total CD8+, immobilized L^d and anti-CD28, IL-2 from day 2): 43%
proliferative response on Day 3 [8]: 80,000 cpm
